The text below walks through data of patent US10766869B2, “Triazoles for the treatment of demyelinating dieases” (Vertex Pharmaceuticals Incorporated, priority 2015, dated 2020).

Read-outs that look alike come from different tables or passages of the source. Some results are limits rather than exact numbers.

For this test, the system named is primary rat mixed cortical cells. Briefly: In vitro myelination assay (MBP positive myelin strands, fold myelin pixels above background). Format: cell-based. The conditions noted are these: Rattus norvegicus; for fold induction at 1 µM: 1.0 μM compound; for fold induction at 10 µM: 10.0 μM compound. The method, boiled down:
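Myelination read as total MBP-immunopositive strand pixels per well, imaged at 10× after fixation on day 14 and expressed relative to untreated wells, at 1.0 and 10.0 μM. Cells: dissociated postnatal day 1 rat cortex, cultured two weeks with compound, re-dosed at days 6 and 10.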

Where [1] appears, read: read-out: Fold myelin pixels above background relative to baseline of no added compound.
The mark [2] stands for this setting: relative to baseline of no added compound, read-out: Fold myelin pixels above background, 1.0 μM.
The mark [3] stands for this setting: relative to baseline of no added compound, read-out: Fold myelin pixels above background, 10.0 μM.
[4] abbreviates: relative to baseline of no added compound, read-out: Fold myelin pixels above background.

As for `Clc1cc(Nc2ncn(-c3ccncn3)n2)cc(N2CC(N3CCOCC3)C2)c1` [Compound 863, N-[3-chloro-5-(3-morpholinoazetidin-1-yl)phenyl]-1-pyrimidin-4-yl-1,2,4-triazol-3-amine], under setting [1], the fold induction at 1 µM was 10 to 100 and the fold induction at 10 µM lay within 10 to 100.

With `Cc1cc(Nc2ncn(-c3ccc(F)c(F)c3)n2)cc(N2CCN(CC(F)(F)F)CC2)c1` [Compound 231, 1-(3,4-difluorophenyl)-N-[3-methyl-5-[4-(2,2,2-trifluoroethyl)piperazin-1-yl]phenyl]-1,2,4-triazol-3-amine], the fold induction at 1 µM under setting [2] was 100 to 1000. Besides, the fold induction at 10 µM under setting [3] lay within 100 to 1000.

Consider `Cc1cc(Nc2ncn(-c3cccnc3)n2)cc(N2CC3(C2)CN(C(C)C)C3)c1` [Compound 966, N-[3-(2-isopropyl-2,6-diazaspiro[3.3]heptan-6-yl)-5-methyl-phenyl]-1-(3-pyridyl)-1,2,4-triazol-3-amine], for which, under setting [1], the fold induction at 1 µM lay in the range of 1 to 10 and the fold induction at 10 µM was at most 1.

For the compound `Cc1cc(N2CCN(C3COC3)CC2)cc(Nc2ncn(-c3ccccc3)n2)c1C` [Compound 237, N-[2,3-dimethyl-5-[4-(oxetan-3-yl)piperazin-1-yl]phenyl]-1-phenyl-1,2,4-triazol-3-amine], the fold induction at 1 µM under setting [2] was in the range of 1000 to 10000. For the same compound, under setting [3], the fold induction at 10 µM was in the range of 100 to 1000.

For the compound `Cc1cc(Nc2ncn(-c3ccccn3)n2)cc(N2CCCN(C3COC3)CC2)c1` [Compound 609, N-[3-methyl-5-[4-(oxetan-3-yl)-1,4-diazepan-1-yl]phenyl]-1-(2-pyridyl)-1,2,4-triazol-3-amine], under setting [4], the fold induction at 1 µM was 100 to 1000 and the fold induction at 10 µM lay in the range of 100 to 1000.

`COc1cc(F)cc(-n2cnc(Nc3cc(C)cc(N4CCN(C)CC4)c3)n2)c1` [Compound 395, 1-(3-fluoro-5-methoxy-phenyl)-N-[3-methyl-5-(4-methylpiperazin-1-yl)phenyl]-1,2,4-triazol-3-amine]: under setting [4], the fold induction at 1 µM lay in the range of 10 to 100 and the fold induction at 10 µM is at most 1.

Take `Cc1cc(Nc2ncn(-c3cc(F)cc(F)c3)n2)cc(N2C3COCC2C3)c1` [Compound 694, 1-(3,5-difluorophenyl)-N-[3-methyl-5-(3-oxa-6-azabicyclo[3.1.1]heptan-6-yl)phenyl]-1,2,4-triazol-3-amine]: under setting [4], the fold induction at 1 µM fell in the range of 10 to 100 and the fold induction at 10 µM is at most 1.

Regarding `COCC1CCN(c2cc(C)cc(Nc3ncn(-c4ccccn4)n3)c2)CC1` [Compound 211, N-[3-[4-(methoxymethyl)-1-piperidyl]-5-methyl-phenyl]-1-(2-pyridyl)-1,2,4-triazol-3-amine], the fold induction at 1 µM under setting [2] was 10 to 100. In addition, the fold induction at 10 µM under setting [3] was 100 to 1000.

Consider `Cc1cc(Nc2ncn(-c3ccc(F)c(F)c3)n2)c(F)c(N2CCN(C3COC3)CC2)c1` [Compound 998, 1-(3,4-difluorophenyl)-N-[2-fluoro-5-methyl-3-[4-(oxetan-3-yl)piperazin-1-yl]phenyl]-1,2,4-triazol-3-amine], for which, under setting [1], the fold induction at 1 µM lay within 10 to 100 and the fold induction at 10 µM fell in the range of 1 to 10.

As to `Fc1cc(Nc2ncn(-c3cccc(C(F)F)c3)n2)cc(N2CCN(C3COC3)CC2)c1` [Compound 794, 1-[3-(difluoromethyl)phenyl]-N-[3-fluoro-5-[4-(oxetan-3-yl)piperazin-1-yl]phenyl]-1,2,4-triazol-3-amine], under setting [1], the fold induction at 1 µM is 1 to 10 and the fold induction at 10 µM was at most 1.

Regarding `CC1=NOC(CNc2cc(C)cc(Nc3ncn(-c4cc(F)cc(F)c4)n3)c2)C1` (centres unmarked) [Compound 1004, N1-[1-(3,5-difluorophenyl)-1,2,4-triazol-3-yl]-5-methyl-N3-[(3-methyl-4,5-dihydroisoxazol-5-yl)methyl]benzene-1,3-diamine], under setting [1], the fold induction at 1 µM was in the range of 1 to 10 and the fold induction at 10 µM is 1 to 10.

For the compound `CCN1CCN(c2cc(C)cc(Nc3ncn(-c4ccccc4)n3)c2)CC1` [Compound 274, N-[3-(4-ethylpiperazin-1-yl)-5-methyl-phenyl]-1-phenyl-1,2,4-triazol-3-amine], under setting [2], the fold induction at 1 µM lay in the range of 1000 to 10000. In addition, under setting [3], the fold induction at 10 µM was in the range of 1 to 10.

In the case of `Fc1cc(Nc2ncn(-c3ccccc3F)n2)cc(N2CCCC2)c1` [Compound 83, 1-(2-fluorophenyl)-N-(3-fluoro-5-pyrrolidin-1-yl-phenyl)-1,2,4-triazol-3-amine], the fold induction at 1 µM under setting [2] was at most 1. In addition, under setting [3], the fold induction at 10 µM was in the range of 10 to 100.

As to `Cc1cc(NC2(C)COC2)cc(Nc2ncn(-c3cc(F)cc(F)c3)n2)c1F` [Compound 1016, N3-[1-(3,5-difluorophenyl)-1,2,4-triazol-3-yl]-4-fluoro-5-methyl-N1-(3-methyloxetan-3-yl)benzene-1,3-diamine], under setting [1], the fold induction at 1 µM fell in the range of 10 to 100 and the fold induction at 10 µM lay in the range of 1 to 10.

For the compound `Cc1cc(Nc2ncn(-c3cncc(F)c3)n2)cc(N2CCCC2)c1` [Compound 320, 1-(5-fluoro-3-pyridyl)-N-(3-methyl-5-pyrrolidin-1-yl-phenyl)-1,2,4-triazol-3-amine], the fold induction at 1 µM under setting [2] fell in the range of 10 to 100. In addition, the fold induction at 10 µM under setting [3] lay within 100 to 1000.

`Fc1cc(-n2cnc(Nc3cc(C(F)F)cc(N4CCOCC4)c3)n2)ccn1` [Compound 85, N-[3-(difluoromethyl)-5-morpholino-phenyl]-1-(2-fluoro-4-pyridyl)-1,2,4-triazol-3-amine]: under setting [2], the fold induction at 1 µM lay in the range of 100 to 1000. The fold induction at 10 µM under setting [3] fell in the range of 100 to 1000.

Take `CCOc1nccc(-n2cnc(Nc3cc(C4CC4)cc(N4CCN(C5COC5)CC4)c3)n2)n1` [Compound 286, N-[3-cyclopropyl-5-[4-(oxetan-3-yl)piperazin-1-yl]phenyl]-1-(2-ethoxypyrimidin-4-yl)-1,2,4-triazol-3-amine]: under setting [2], the fold induction at 1 µM was 100 to 1000. Besides, the fold induction at 10 µM under setting [3] fell in the range of 100 to 1000.

As to `Fc1cc(F)cc(-n2cnc(Nc3cc(N4CCN(C5COC5)CC4)cc(N4CCN(C5COC5)CC4)n3)n2)c1` [Compound 726, N-[1-(3,5-difluorophenyl)-1,2,4-triazol-3-yl]-4,6-bis[4-(oxetan-3-yl)piperazin-1-yl]pyridin-2-amine], under setting [4], the fold induction at 1 µM was 1 to 10 and the fold induction at 10 µM is 1 to 10.

With `Cc1cc(Nc2ncn(-c3ccc(F)c(F)c3)n2)cc(OCc2ccn(C)n2)c1` [Compound 714, 1-(3,4-difluorophenyl)-N-[3-methyl-5-[(1-methylpyrazol-3-yl)methoxy]phenyl]-1,2,4-triazol-3-amine], under setting [4], the fold induction at 1 µM lay within 10 to 100 and the fold induction at 10 µM is 10 to 100.

Consider `COc1ccc(-n2cnc(Nc3cc(C)cc(N4CC(N5CCOCC5)C4)c3)n2)cc1` [Compound 841, 1-(4-methoxyphenyl)-N-[3-methyl-5-(3-morpholinoazetidin-1-yl)phenyl]-1,2,4-triazol-3-amine], for which, under setting [1], the fold induction at 1 µM was in the range of 1 to 10 and the fold induction at 10 µM lay within 10 to 100.

Regarding `CCc1cc(Nc2ncn(-c3cccc(C#N)c3)n2)cc(N2CCN(C3COC3)CC2)c1` [Compound 734, 3-[3-[3-ethyl-5-[4-(oxetan-3-yl)piperazin-1-yl]anilino]-1,2,4-triazol-1-yl]benzonitrile], under setting [4], the fold induction at 1 µM was 1 to 10 and the fold induction at 10 µM is at most 1.

On to `Cc1cc(N2CC(N3CCOCC3)C2)cc(Nc2ncn(-c3cc(F)cc(F)c3)n2)c1F` [Compound 870, 1-(3,5-difluorophenyl)-N-[2-fluoro-3-methyl-5-(3-morpholinoazetidin-1-yl)phenyl]-1,2,4-triazol-3-amine], for which, under setting [1], the fold induction at 1 µM lay within 1 to 10 and the fold induction at 10 µM lay within 1 to 10.

Turning to `Cc1cc(Nc2ncn(-c3cccc(C(F)(F)F)c3)n2)cc(OCC2(C)COC2)c1` [Compound 671, N-[3-methyl-5-[(3-methyloxetan-3-yl)methoxy]phenyl]-1-[3-(trifluoromethyl)phenyl]-1,2,4-triazol-3-amine], under setting [4], the fold induction at 1 µM was 10 to 100 and the fold induction at 10 µM was in the range of 1 to 10.

On to `Cc1cc(Nc2ncn(-c3cc(F)cc(F)c3)n2)cc(N2CC(CC(C)C)N3CCC[C@@H]3C2)c1` (stereo partly drawn) [Compound 29, N-[3-[(8aR)-4-isobutyl-3,4,6,7,8,8a-hexahydro-1H-pyrrolo[1,2-a]pyrazin-2-yl]-5-methyl-phenyl]-1-(3,5-difluorophenyl)-1,2,4-triazol-3-amine], for which, under setting [2], the fold induction at 1 µM is at most 1. Under setting [3], the fold induction at 10 µM is at most 1.

Consider `Cc1cc(Nc2ncn(-c3cc(F)cc(F)c3)n2)cc(N2CCN(C(C)(C)C)CC2)c1` [Compound 709, N-[3-(4-tert-butylpiperazin-1-yl)-5-methyl-phenyl]-1-(3,5-difluorophenyl)-1,2,4-triazol-3-amine], for which, under setting [4], the fold induction at 1 µM lay in the range of 1 to 10 and the fold induction at 10 µM fell in the range of 1 to 10.

In the case of `Cc1cc(Nc2ncn(-c3ccccc3)n2)cc(N2CCNC(CO)C2)c1` (centres unmarked) [Compound 59, [4-[3-methyl-5-[(1-phenyl-1,2,4-triazol-3-yl)amino]phenyl]piperazin-2-yl]methanol], the fold induction at 1 µM under setting [2] is 100 to 1000. Besides, the fold induction at 10 µM under setting [3] fell in the range of 100 to 1000.

As for `Cc1cc(Nc2ncn(-c3cc(F)cc(F)c3)n2)cc(NC2CCN(C3CCOCC3)CC2)c1` [Compound 1013, N3-[1-(3,5-difluorophenyl)-1,2,4-triazol-3-yl]-5-methyl-N1-(1-tetrahydropyran-4-yl-4-piperidyl)benzene-1,3-diamine], under setting [1], the fold induction at 1 µM lay within 10 to 100 and the fold induction at 10 µM was at most 1.

With `Fc1cc(F)cc(-n2cnc(Nc3cc(Cl)cc(N4CC(N5CCOCC5)C4)c3)n2)c1` [Compound 723, N-[3-chloro-5-(3-morpholinoazetidin-1-yl)phenyl]-1-(3,5-difluorophenyl)-1,2,4-triazol-3-amine], under setting [4], the fold induction at 1 µM lay in the range of 10 to 100 and the fold induction at 10 µM was in the range of 100 to 1000.
